Test results published in patent US5057512A, “3-amino-2-oxo-azetidine-1-sulfonic acids” (Uclaf; Roussel, priority 1981, dated 1991).

Experiments:
Experiment in all cases: M.I.C., dilutions in liquid medium
Type in all cases: cell-based
[1] = system: Enterobacter Cloacae 681; settings: 37° C.
Method: (§1) A. Activity in Vitro-Method of Dilutions in Liquid Medium
(§2) A series of tubes was prepared in which the same amount of sterile nutritive medium was distributed and there was distributed in each tube increasing amounts of the test product. Then, each tube was inoculated with a bacterial strain and after incubation for twenty-four or forty-eight hours in an oven at 37° C., the inhibition of the growth was evaluated by trans-illumination to determine the minimum inhibiting concentrations (M.I.C.), expressed in μg/ml.

[2] = system: Escherichia Coli Resistant to Gentamycine Tobramycine R55 123 D; settings: 37° C.
Method: as §1, §2

[3] = system: Escherichia Coli Resistant to Tetracycline AT CC 11 303; settings: 37° C.
Method: as §1, §2

[4] = system: Escherichia Coli Sensitive to Tetracycline 7624; settings: 37° C.
Method: as §1, §2

[5] = system: Klebsiella Pneumoniae 2536 Resistant Gentamycine; settings: 37° C.
Method: as §1, §2

[6] = system: Klebsiella Pneumoniae Exp. 52145; settings: 37° C.; for MIC: Klebsiella pneumoniae; for M.I.C.: 24 Hr.
Method: as §1, §2

[7] = system: Proteus mirabilis (indol -) A 235; settings: 37° C.; for MIC: Proteus mirabilis
Method: as §1, §2

[8] = system: Proteus vulgaris (indol +) A 232; settings: 37° C.; for MIC: Proteus vulgaris
Method: as §1, §2

[9] = system: Providencia Du 48; settings: 37° C.; for MIC: Providencia, DU48
Method: as §1, §2

[10] = system: Salmonella typhimurium 420; settings: Salmonella enterica, 37° C.
Method: as §1, §2

[11] = system: Serratia Resistant to Gentamycine 2 532; settings: 37° C.; for MIC: Serratia; for M.I.C.: 24 Hr.
Method: as §1, §2

[12] = system: Enterobacter cloacae 1321 E; settings: 37° C.; for MIC: Enterobacter cloacae, 1321E
Method: as §1, §2

[13] = system: Escherichia coli 0 78; settings: 37° C.
Method: as §1, §2

[14] = system: Escherichia coli 1507 E; settings: 37° C.; for MIC: Escherichia coli, 1507E
Method: as §1, §2

[15] = system: Escherichia coli DC 0; settings: 37° C.; for MIC: Escherichia coli
Method: as §1, §2

[16] = system: Escherichia coli DC 2; settings: 37° C.; for MIC: Escherichia coli, DC2
Method: as §1, §2

[17] = system: Escherichia coli T E M; settings: 37° C.; for MIC: Escherichia coli
Method: as §1, §2

[18] = system: Escherichia coli UC 1894; settings: 37° C.; for MIC: Escherichia coli, UC1894
Method: as §1, §2

[19] = system: Klebsiella aerogenes 1082 E; settings: 37° C.; for MIC: Klebsiella aerogenes, 1082E
Method: as §1, §2

[20] = system: Klebsiella aerogenes 1522 E; settings: 37° C.; for MIC: Klebsiella aerogenes, 1522E
Method: as §1, §2

[21] = system: Pseudomonas aeruginosa 1771 m; settings: 37° C.; for MIC: Pseudomonas aeruginosa, 1771M
Method: as §1, §2

[22] = system: Salmonella typhimurium MZ 11; settings: 37° C.; for MIC: Salmonella enterica, TYPHIMURIUM
Method: as §1, §2

[23] = Escherichia coli, 078, 24 h, 24 H
[24] = Escherichia coli, 078, 48 h, 48 H

CON=C(C(=O)NC1C(=O)N(S(=O)(=O)O)C1CCl)c1csc(N)n1 (mixture of isomers) [Example 1, Racemate of syn isomer of cis 4-chloromethyl-3-[2-(2-amino-4-thiazolyl)-2-methoxyimino-acetamido]-2-oxoazetidine-1-sulfonic acid]
0.16 µg/mL: MIC ([3]; 24 Hr.) | MIC ([3]; 48 Hr.) | MIC ([7]; 24 h) | MIC ([7]; 48 h)
2.5 µg/mL: MIC ([1]; CLOACAE681, 24 Hr.) | MIC ([1]; CLOACAE681, 48 Hr.) | MIC ([5]; 24 Hr.) | MIC ([5]; 48 Hr.) | MIC ([6]; 48 h)
0.62 µg/mL: MIC ([2]; 24 Hr.) | MIC ([2]; 48 Hr.) | MIC ([9]; 24 Hr.) | MIC ([9]; 48 Hr.)
5 µg/mL: MIC ([11]; 24 h) | MIC ([11]; 48 h)
0.08 µg/mL: MIC ([8]; 24 Hr.) | MIC ([8]; 48 Hr.)
1.25 µg/mL: MIC ([4]; 24 Hr.) | MIC ([4]; 48 Hr.) | MIC ([6]; 24 h) | MIC ([10]; 24 Hr.) | MIC ([10]; 48 Hr.)

Nc1nc(C(=NO)C(=O)NC2C(=O)N(S(=O)(=O)O)C2CCl)cs1 (mixture of isomers) [Example 4, Racemate of syn isomer of cis 4-chloromethyl-3-[2-(2-amino-4-thiazolyl)-2-hydroxyimino-acetamido]-2-oxo-azetidine-1-sulfonic acid]
5 µg/mL: MIC ([6]; 24 h) | MIC ([6]; 48 h) | MIC ([11]; 24 h) | MIC ([11]; 48 h)
2.5 µg/mL: MIC ([5]; 24 Hr.) | MIC ([5]; 48 Hr.) | MIC ([10]; 48 Hr.)
0.6 µg/mL: MIC ([2]; 24 Hr.) | MIC ([2]; 48 Hr.) | MIC ([3]; 24 Hr.) | MIC ([3]; 48 Hr.) | MIC ([4]; 24 Hr.) | MIC ([4]; 48 Hr.) | MIC ([7]; 24 h) | MIC ([8]; 24 Hr.) | MIC ([8]; 48 Hr.) | MIC ([9]; 24 Hr.)
1.2 µg/mL: MIC ([7]; 48 h) | MIC ([9]; 48 Hr.) | MIC ([10]; 24 Hr.)

CON=C(C(=O)NC1C(=O)N(S(=O)(=O)O)C1CF)c1csc(N)n1 (mixture of isomers) [Example 5, Racemate of syn isomer of cis 4-fluoromethyl-3-[2-(2-amino-4-thiazolyl)-2-methoxyimino-acetamido]-2-oxo-azetidine-1-sulfonic acid]
0.3 µg/mL: MIC ([15]; DC0, 24 h, 24 H) | MIC ([15]; DC0, 48 h, 48 H) | MIC ([16]; 48 H) | M.I.C. [6] | MIC ([6]; 48 h) | MIC ([9]; 24 Hr.) | MIC ([9]; 48 Hr.)
0.6 µg/mL: MIC ([21]; 24 H)
5 µg/mL: MIC ([19]; 24 h) | MIC ([19]; 48 h)
0.06 µg/mL: M.I.C. [11]
≤ 0.04 µg/mL: MIC ([18]; 24 H) | MIC ([18]; 48 H) | MIC ([8]; 24 Hr.) | MIC ([8]; 48 Hr.)
0.08 µg/mL: MIC ([12]; 24 H) | MIC ([12]; 48 H) | MIC ([7]; 24 h) | MIC ([7]; 48 h) | MIC ([22]; 24 h) | MIC ([22]; 48 h)
1.2 µg/mL: MIC ([21]; 48 H) | MIC ([11]; 48 h)
0.15 µg/mL: MIC [13, 23] | MIC [13, 24] | MIC ([14]; 24 h) | MIC ([14]; 48 h) | MIC ([16]; 24 H) | MIC ([17]; 24 h) | MIC ([17]; 48 h) | MIC ([20]; 24 h) | MIC ([20]; 48 h)

CC(C)(ON=C(C(=O)NC1C(=O)N(S(=O)(=O)O)C1CF)c1csc(N)n1)C(=O)O (mixture of isomers) [Example 6, Racemate of syn isomer of cis 4-fluoromethyl-3-[2-(2-amino-4-thiazolyl)-2-(1-carboxy-1-methyl-ethoxy)-imino-acetamido]-2-oxo-azetidine-1-sulfonic acid]
0.15 µg/mL: MIC ([9]; 24 Hr.) | MIC ([9]; 48 Hr.)
0.3 µg/mL: MIC ([12]; 24 H) | MIC ([12]; 48 H) | MIC [13, 23] | MIC [13, 24] | MIC ([16]; 24 H) | MIC ([16]; 48 H) | MIC ([20]; 24 h) | MIC ([20]; 48 h) | MIC ([21]; 24 H) | MIC ([11]; 24 h) | MIC ([11]; 48 h)
≤ 0.04 µg/mL: MIC ([7]; 24 h) | MIC ([7]; 48 h) | MIC ([8]; 24 Hr.) | MIC ([8]; 48 Hr.)
0.08 µg/mL: MIC ([18]; 24 H) | MIC ([18]; 48 H)
0.6 µg/mL: MIC ([14]; 24 h) | MIC ([14]; 48 h) | MIC ([15]; DC0, 24 h, 24 H) | MIC ([15]; DC0, 48 h, 48 H) | MIC ([17]; 24 h) | MIC ([17]; 48 h) | MIC ([6]; 24 h) | MIC ([6]; 48 h) | MIC ([19]; 24 h) | MIC ([19]; 48 h) | MIC ([21]; 48 H) | MIC ([22]; 24 h) | MIC ([22]; 48 h)

Nc1nc(C(=NOC(F)F)C(=O)NC2C(=O)N(S(=O)(=O)O)C2CF)cs1 (mixture of isomers) [Example 8, Racemate of the syn isomer of cis 4-fluoromethyl-3-[2-(2-amino-4-thiazolyl)-2-difluoromethoxyimino-acetamido]-2-oxo-azetidine-1-sulfonic acid]
0.15 µg/mL: MIC ([17]; 24 h) | MIC ([17]; 48 h)
0.3 µg/mL: MIC ([6]; 24 h) | MIC ([6]; 48 h) | MIC ([9]; 24 Hr.) | MIC ([9]; 48 Hr.)
≤ 0.08 µg/mL: MIC ([18]; 48 H)
0.6 µg/mL: MIC ([11]; 24 h) | MIC ([11]; 48 h)
0.08 µg/mL: MIC ([12]; 24 H) | MIC ([12]; 48 H) | MIC [13, 23] | MIC [13, 24] | MIC ([15]; DC0, 24 h, 24 H) | MIC ([15]; DC0, 48 h, 48 H) | MIC ([20]; 24 h) | MIC ([20]; 48 h) | MIC ([22]; 24 h) | MIC ([22]; 48 h)
≤ 0.04 µg/mL: MIC ([14]; 24 h) | MIC ([14]; 48 h) | MIC ([16]; 24 H) | MIC ([16]; 48 H) | MIC ([18]; 24 H) | MIC ([7]; 24 h) | MIC ([7]; 48 h) | MIC ([8]; 24 Hr.) | MIC ([8]; 48 Hr.)

NCCON=C(C(=O)NC1C(=O)N(S(=O)(=O)O)C1CCl)c1csc(N)n1 (mixture of isomers) [Example 3, Racemate of syn isomer of cis 4-chloromethyl-3[2(2-amino-4-thiazolyl)-2-(2-aminoethoxy)-imino-acetamido]-2-oxo-azetidine-1-sulfonic acid]
10 µg/mL: MIC ([6]; 48 h)
5 µg/mL: MIC ([6]; 24 h) | MIC ([10]; 48 Hr.) | MIC ([11]; 48 h)
0.6 µg/mL: MIC ([3]; 24 Hr.) | MIC ([3]; 48 Hr.) | MIC ([7]; 24 h) | MIC ([7]; 48 h)
2.5 µg/mL: MIC ([5]; 24 Hr.) | MIC ([5]; 48 Hr.) | MIC ([9]; 24 Hr.) | MIC ([9]; 48 Hr.) | MIC ([10]; 24 Hr.) | MIC ([11]; 24 h)
1.2 µg/mL: MIC ([2]; 24 Hr.) | MIC ([2]; 48 Hr.) | MIC ([4]; 24 Hr.) | MIC ([4]; 48 Hr.) | MIC ([8]; 24 Hr.) | MIC ([8]; 48 Hr.)

CON=C(C(=O)NC1C(=O)N(S(=O)(=O)O)C1CF)c1csc(N)n1 [Example 11, (3S,4S)ΔZ 4-fluoromethyl-3-[2-(2-amino-4-thiazolyl)-2-methoxyimino-acetamido]-2-oxo-azetidine-1-sulfonic acid]
2.5 µg/mL: M.I.C. [11]
0.15 µg/mL: M.I.C. ([15]; 24 H) | M.I.C. ([16]; 24 H) | M.I.C. ([7]; 24 Hr.)
0.3 µg/mL: M.I.C. ([9]; 24 Hr.)
0.08 µg/mL: M.I.C. ([12]; 24 H) | M.I.C. ([13]; 24 H) | M.I.C. ([14]; 24 H) | M.I.C. ([17]; 24 H) | M.I.C. [6] | M.I.C. ([20]; 24 H)
0.6 µg/mL: M.I.C. ([21]; 24 H)
10 µg/mL: M.I.C. ([19]; 24 H)
≤ 0.04 µg/mL: M.I.C. ([18]; 24 H) | M.I.C. ([8]; 24 Hr.) | M.I.C. ([22]; 24 H)
